Experimental data published in patent publication US5250540A, “Aminomethyl-substituted 2,3-dihydropyrano[2,3-b]pyridines and their use in medicaments” (Bayer Aktiengesellschaft, priority 1991, dated 1993).
Counter-ions that a name gives are not always drawn.

Biological target: 5-HT1-receptor (5-hydroxytryptamine receptors of subtype 1)
Test: receptor binding studies using preparations of calf hippocampus membranes, radioligand 3H-serotonin
Settings: ^3 H-serotonin as radioactively labelled ligand
Text: In Table 1 the high affinity of the compounds according to the invention for 5-hydroxytryptamine receptors of subtype 1 is exemplified. The values given relate to data obtained from receptor binding studies using preparations of calf hippocampus membranes. The radioactively labelled ligand used for this was ^3 H-serotonin.

Compound: O=C1c2ccccc2S(=O)(=O)N1CCCCNCC1CCc2cccnc2O1 (stereo not shown) [Example 4, 2-N-(4-Butylsaccharinyl)-aminomethyl-2,3-dihydropyrano2,3-b]pyridine HCl salt]
- Ki: 1 nM
